The values below are quoted from earlier work in patent publication US20190279737A1, “METHOD OF DISCOVERING NEW DRUG CANDIDATE TARGETING DISORDER-TO-ORDER TRANSITION REGION AND APPARATUS FOR DISCOVERING NEW DRUG CANDIDATE” (INDUSTRY-UNIVERSITY COOPERATION FOUNDATION HANYANG …, priority 2016, published 2019).

In this series the target is Myc (Homo sapiens, UniProt P01106). Conditions: Follis et al. 2008.

Structures are written as SMILES.

Myc, sequence (P01106 16-454, species assumed): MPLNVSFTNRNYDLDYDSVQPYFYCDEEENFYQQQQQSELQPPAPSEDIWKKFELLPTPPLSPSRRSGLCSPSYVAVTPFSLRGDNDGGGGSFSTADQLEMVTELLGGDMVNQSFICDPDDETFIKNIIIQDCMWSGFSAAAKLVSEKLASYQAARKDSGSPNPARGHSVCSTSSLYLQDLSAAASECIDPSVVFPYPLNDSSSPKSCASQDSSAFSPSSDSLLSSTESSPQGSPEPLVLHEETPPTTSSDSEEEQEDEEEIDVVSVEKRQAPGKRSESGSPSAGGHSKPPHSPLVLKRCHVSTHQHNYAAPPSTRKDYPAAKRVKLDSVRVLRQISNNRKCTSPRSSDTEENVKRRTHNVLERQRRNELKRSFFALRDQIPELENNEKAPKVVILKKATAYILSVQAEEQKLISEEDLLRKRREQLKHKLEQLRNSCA

As for `CCc1ccc(/C=C2/SC(=S)NC2=O)cc1` [10058-F4], the “region of Myc bound” value was “specifically binds to a 402-412 region of Myc”.
